# Measurements published in US20040234610A1, “Medical device and method for inhalation of aerosolized drug with heliox” (priority 2001, published 2004).
# Tests used:
# asthma patients = assay: Pilot study, albuterol nebulized with heliox vs oxygen through open mouthpiece and T-piece system, spirometry; type: in vivo, human; conditions: open mouthpiece and T-piece adapter system
# Method: A pilot study was conducted using an open system, including a mouthpiece and T-piece adapter ([…], Allegiance Healthcare Corp., McGaw Park, Ill.), to nebulize albuterol.
# [1] = tested on: adult patients with severe acute exacerbation of asthma; assay: Randomized study, albuterol nebulized with heliox 80:20 vs oxygen (control) through semi-closed system, FEV1 spirometry; type: in vivo, human
# Excerpt: Forty-five patients were randomized to receive albuterol nebulized with oxygen (control) versus heliox. At baseline, demographics, outpatient asthma medications, vital signs, oxygen saturation and forced expiratory volume in one second (FEV1) were not different between the two groups. Three consecutive albuterol treatments were given to each group.
# The study subjects were adult patients who presented to the Emergency Department at the University of Chicago Medical Center for a severe acute exacerbation of asthma. The study was approved by the Institutional Review Board and all patients enrolled gave written informed consent before beginning the study. Patients 50 years of age or under meeting American Thoracic Society criteria for the diagnosis of asthma were eligible. To assure that only those with severe persistent asthma were studied, only those patients with baseline forced expiratory volume in one second (FEV1) less than fifty percent predicted were enrolled in the study.
# The heliox delivery system consisted of a facemask connected to a Y-piece with the nebulizer (Airlife™ Misty-Neb™ Nebulizer) on one limb and a non-rebreather bag on the other limb (as shown in FIG. 1). Heliox flow to the nebulizer was set at 10 liters/minute (via an oxygen calibrated flow meter thus equivalent to 18 L/min Heliox flow). A separate flow of 10 liters/minute of heliox (via an oxygen calibrated flow meter thus equivalent to 18 L/min Heliox flow) was delivered to the non-rebreather bag. […] Each treatment continued until the nebulizer was dry—a period of approximately ten minutes, followed by a fifteen minute washout period. The total time for the study was approximately 90 minutes. Corticosteroid therapy for asthma exacerbations was directed by the emergency room physicians, who were not directly involved in the study.
# To assure its accuracy for the purpose of this study, the spirometer was tested every other week using a three liter syringe. In addition, the accuracy of FEV, recordings was tested by having subjects perform forced expiratory maneuvers through the portable spirometer at varying flow rates while it was in-line with a Medical Graphics 1070 pulmonary function testing system. (This system was calibrated daily.) This test was also performed every other week for the first three months of the study and monthly thereafter.
# Patients performed a minimum of three forced expiratory maneuvers with values recorded according to the American Thoracic Society recommendations (American Thoracic Society: Standardization of spirometry—1994 update, Am. J. Respir. Crit. Care Med. 152:1107-36 (1995)). All spirometric measurements were made by investigators who were blinded to the gas used for albuterol nebulization. […] Patients were not told explicitly which treatment limb they were randomized to; however, because of potential voice changes while breathing heliox, it was not possible to assure that patients were blinded to which therapy they received.
# Demographic data, chronic asthma medications, emergency room corticosteroid administration, vital signs (heart rate, mean arterial pressure, respiratory rate), oxygen saturation by pulse oximetry, emergency room length of stay and hospital admissions from the emergency room were recorded for all patients. Data are expressed as mean±SD when normally distributed and median (interquartile range) when not normally distributed. Interval data were compared using a two-tailed Student's t test or Mann Whitney U test according to normality of distribution, categorical data were compared using Chi square or Fisher Exact test when appropriate. […] The Student-Newman-Keuls test was used to compare differences between heliox and control groups after each nebulization treatment when appropriate. […] A 25% difference in percent change in FEV1 between the control and heliox groups was considered clinically important. […]
structure (smiles),measurement,setting,value
CC(C)(C)NCC(O)c1ccc(O)c(CO)c1 (stereo not shown) [albuterol],differences in spirometry between heliox and oxygen albuterol nebulization,asthma patients,no differences in spirometry between heliox and oxygen albuterol nebulization were detected
same,median percent change in FEV1 from baseline,"[1]; control group (nebulized with oxygen 10 L/min), after albuterol treatment 1",14.6%
same,median percent change in FEV1 from baseline,"[1]; control group (oxygen), after treatment 2",22.7%
same,median percent change in FEV1 from baseline,"[1]; control group (oxygen), after treatment 3",26.6%
same,median percent change in FEV1 from baseline,"[1]; heliox group (nebulized with heliox 80:20), after albuterol treatment 1, P=0.007 vs control",32.4%
same,median percent change in FEV1 from baseline,"[1]; heliox group, after treatment 2, P=0.007 vs control",51.5%
same,median percent change in FEV1 from baseline,"[1]; heliox group, after treatment 3, P=0.016 vs control",65.1%
